Reference: paper PMC7229842, “Molecular basis of the multifaceted functions of human leucyl-tRNA synthetase in protein synthesis and beyond” (Nucleic Acids Research, 2020)
Values belong to the molecule of their own block, whether it stands above or below them.

Experiments:
[1] = biological target: T1, Human cytosolic leucyl-tRNA synthetase (hcLRS) (Homo sapiens, UniProt Q9P2J5); test: X-ray co-crystal structure at […] Å (as AN6426-AMP); aminoacylation inhibition IC50; assay type: biochemical
T1 construct: gene LARS1
Target sequence in this assay (Q9P2J5 whole entry): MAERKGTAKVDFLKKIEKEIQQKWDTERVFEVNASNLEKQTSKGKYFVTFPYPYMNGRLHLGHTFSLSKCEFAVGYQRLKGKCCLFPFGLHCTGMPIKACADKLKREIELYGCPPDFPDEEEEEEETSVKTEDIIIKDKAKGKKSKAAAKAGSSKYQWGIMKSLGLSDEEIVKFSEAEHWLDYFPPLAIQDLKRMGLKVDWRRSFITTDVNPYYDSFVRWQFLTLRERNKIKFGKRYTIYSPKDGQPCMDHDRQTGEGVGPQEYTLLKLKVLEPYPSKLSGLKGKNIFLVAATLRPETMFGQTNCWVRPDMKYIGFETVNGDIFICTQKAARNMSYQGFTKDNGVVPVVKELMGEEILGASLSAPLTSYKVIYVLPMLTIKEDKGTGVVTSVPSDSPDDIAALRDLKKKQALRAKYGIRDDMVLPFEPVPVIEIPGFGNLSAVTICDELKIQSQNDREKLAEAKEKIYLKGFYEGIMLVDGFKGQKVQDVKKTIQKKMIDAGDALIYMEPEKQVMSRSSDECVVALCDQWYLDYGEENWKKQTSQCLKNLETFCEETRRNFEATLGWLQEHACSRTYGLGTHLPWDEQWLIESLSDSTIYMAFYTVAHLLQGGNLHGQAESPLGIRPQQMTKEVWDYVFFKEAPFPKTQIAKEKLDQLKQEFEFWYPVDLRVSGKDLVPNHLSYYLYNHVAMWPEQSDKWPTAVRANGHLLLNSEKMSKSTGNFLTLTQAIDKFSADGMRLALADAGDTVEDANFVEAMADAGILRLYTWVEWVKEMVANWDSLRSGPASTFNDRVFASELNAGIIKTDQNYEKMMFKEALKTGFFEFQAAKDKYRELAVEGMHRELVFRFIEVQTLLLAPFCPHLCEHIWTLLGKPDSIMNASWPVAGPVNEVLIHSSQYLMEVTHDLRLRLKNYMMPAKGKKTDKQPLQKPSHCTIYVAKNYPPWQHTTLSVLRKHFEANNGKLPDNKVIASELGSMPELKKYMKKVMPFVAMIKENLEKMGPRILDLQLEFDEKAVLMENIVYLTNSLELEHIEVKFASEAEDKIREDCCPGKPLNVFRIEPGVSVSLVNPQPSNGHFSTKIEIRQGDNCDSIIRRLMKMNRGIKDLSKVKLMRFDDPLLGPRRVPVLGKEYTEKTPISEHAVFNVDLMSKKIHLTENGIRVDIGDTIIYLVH

[2] = biological target: T1, Human cytosolic leucyl-tRNA synthetase (hcLRS); test: X-ray co-crystal structure, […] Å; assay type: binding
Target sequence in this assay (Q9P2J5 1-1070): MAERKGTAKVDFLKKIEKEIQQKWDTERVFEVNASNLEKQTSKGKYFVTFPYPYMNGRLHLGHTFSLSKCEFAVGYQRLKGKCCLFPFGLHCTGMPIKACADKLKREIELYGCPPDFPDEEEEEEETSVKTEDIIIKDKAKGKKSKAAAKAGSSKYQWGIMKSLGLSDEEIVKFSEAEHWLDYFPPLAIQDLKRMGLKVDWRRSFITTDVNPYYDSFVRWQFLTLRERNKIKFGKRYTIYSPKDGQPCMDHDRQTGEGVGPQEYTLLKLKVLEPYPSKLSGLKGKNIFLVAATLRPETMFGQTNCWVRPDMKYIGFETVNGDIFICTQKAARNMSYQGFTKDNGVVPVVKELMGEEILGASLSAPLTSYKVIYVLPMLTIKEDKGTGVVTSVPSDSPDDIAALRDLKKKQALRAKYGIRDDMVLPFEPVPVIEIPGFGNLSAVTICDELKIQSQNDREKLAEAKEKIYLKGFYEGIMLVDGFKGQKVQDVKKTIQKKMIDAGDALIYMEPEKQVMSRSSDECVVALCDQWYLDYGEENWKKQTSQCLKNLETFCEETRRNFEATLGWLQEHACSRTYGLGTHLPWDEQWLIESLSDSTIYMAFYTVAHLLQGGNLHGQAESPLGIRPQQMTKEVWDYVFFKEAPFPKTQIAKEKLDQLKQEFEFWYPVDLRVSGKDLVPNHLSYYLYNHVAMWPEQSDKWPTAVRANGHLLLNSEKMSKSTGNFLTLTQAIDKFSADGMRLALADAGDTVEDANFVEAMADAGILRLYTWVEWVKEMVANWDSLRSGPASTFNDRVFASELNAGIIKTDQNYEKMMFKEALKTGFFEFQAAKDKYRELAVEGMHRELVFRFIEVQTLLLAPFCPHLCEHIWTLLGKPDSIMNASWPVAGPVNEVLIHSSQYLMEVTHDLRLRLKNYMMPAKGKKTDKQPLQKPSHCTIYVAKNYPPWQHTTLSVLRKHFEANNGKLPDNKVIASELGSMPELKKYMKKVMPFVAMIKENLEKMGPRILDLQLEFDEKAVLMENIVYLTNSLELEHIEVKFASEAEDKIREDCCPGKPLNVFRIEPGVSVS

[3] = biological target: T1, Human cytosolic leucyl-tRNA synthetase (hcLRS); test: aminoacylation assay with [3H]-Leu and tRNA^Leu(CAG), purified hcLRS; assay type: biochemical
Target sequence in this assay (Q9P2J5 whole entry): as the sequence (Q9P2J5 whole entry) above

IC50 [1]: 7.7 µM
SMILES: CCOc1ccc(Cl)c2c1B(O)OC2CN (stereo not drawn) [AN6426]

SMILES: CC(C)C[C@H](N)C(=O)NS(=O)(=O)OC[C@H]1O[C@@H](n2cnc3c(N)ncnc32)[C@H](O)[C@@H]1O [LeuAMS]
X-ray co-crystal structure, 2.5 Å [2]: LeuAMS, a stable analog of LeuAMP, was bound in the aminoacylation active site in our structure

IC50 [3]: 14.8 µM
SMILES: OB1OCc2cc(F)ccc21 [tavaborole]
